Results from patent US20020019536A1, “NEW URETHANES, THIO AND DITHIO ANALOGUES AND THEIR USE AS INHIBITORS OF CHOLESTEROL BIOSYNTHESIS” (priority 1997, published 2002).

Columns and labels:
[1] = tested on: Sacch. carisbergensis ATCC 9080; experiment: Fungistatic activity, series dilution test; format: cell-based; conditions: Sabouraud broth, 2 to 4 days at 26° C.
Protocol: (§1) V. Determining the Fungistatic Activity
(§2) The fungistatic activity was determined by the series dilution test (microtitre system). Sabouraud broth was used as the nutrient medium. The inoculum amounted to about 10^4 to 10^5 CFU/ml (CFU=colony-forming units); the incubation period was 2 to 4 days at 26° C.
(§3) The lowest concentration which allows no visible growth (minimum inhibitory concentration MIC) was determined.
(§4) The abovementioned compounds B, E, G, I, K, L, N, Q and R were tested. The MIC is given in μg/ml.

[2] = tested on: Rhod. rubra 49; experiment: Fungistatic activity, series dilution test; format: cell-based; conditions: Sabouraud broth, 2 to 4 days at 26° C.
Protocol: as §1, §2, §3, §4

[3] = tested on: Trich. mentagrophytes ATCC 9129; experiment: Fungistatic activity, series dilution test; format: cell-based; conditions: Sabouraud broth, 2 to 4 days at 26° C.
Protocol: as §1, §2, §3, §4

[4] = tested on: Asp. niger ATCC 16404; experiment: Fungistatic activity, series dilution test; format: cell-based; conditions: Sabouraud broth, 2 to 4 days at 26° C.
Protocol: as §1, §2, §3, §4

[5] = tested on: Pen. notatum CBS 19746; experiment: Fungistatic activity, series dilution test; format: cell-based; conditions: Sabouraud broth, 2 to 4 days at 26° C.
Protocol: as §1, §2, §3, §4

[6] = tested on: Cand. albicans ATCC 10231; experiment: Fungistatic activity, series dilution test; format: cell-based; conditions: Sabouraud broth, 2 to 4 days at 26° C.
Protocol: as §1, §2, §3, §4

[7] = tested on: HaCat cells (human keratinocytes); experiment: Inhibition of cell proliferation (BrdU ELISA); format: cell-based; conditions: 10^−6 mol/l, average of three measurements, given as a percentage of the control (control 100%)
Protocol: IV. Inhibition of Cell Proliferation
HaCat cells (human keratinocytes) are seeded at a density of 10,000 cells per well in a 96 well microtitre plate. The culture medium used is Dulbecco's modified eagle medium (DMEM) with the addition of 10% calf serum. The cells are incubated for two days in an incubator, then the test substance, dissolved in dimethyl sulphoxide and diluted with culture medium, is added. After another two days incubation, 5-bromo-2′-deoxyuridine is added and the test results are determined according to the instructions (Boehringer Mannheim, Cell proliferation ELISA, BrdU(colorimetric)). The BrdU measurement was carried out at 380-490 nm in the Plate Reader made by Bio Rad.
The proliferation-inhibiting activity of compounds E, G and H was investigated. The average of three measurements was calculated and the results are given as a percentage of the control (Table 5).

[8] = target: T1, 2,3-epoxysqualene-lanosterol-cyclase (Rattus norvegicus, UniProt P48450); experiment: In-vivo activity in the rat after oral administration: 2,3-epoxysqualene level in the liver
T1 construct: Measuring the in-vivo Activity in the Rat after Oral Administration; from tissue; host or cells: living rat; 2,3-epoxysqualene measured in the liver
T1 sequence (P48450 1-733): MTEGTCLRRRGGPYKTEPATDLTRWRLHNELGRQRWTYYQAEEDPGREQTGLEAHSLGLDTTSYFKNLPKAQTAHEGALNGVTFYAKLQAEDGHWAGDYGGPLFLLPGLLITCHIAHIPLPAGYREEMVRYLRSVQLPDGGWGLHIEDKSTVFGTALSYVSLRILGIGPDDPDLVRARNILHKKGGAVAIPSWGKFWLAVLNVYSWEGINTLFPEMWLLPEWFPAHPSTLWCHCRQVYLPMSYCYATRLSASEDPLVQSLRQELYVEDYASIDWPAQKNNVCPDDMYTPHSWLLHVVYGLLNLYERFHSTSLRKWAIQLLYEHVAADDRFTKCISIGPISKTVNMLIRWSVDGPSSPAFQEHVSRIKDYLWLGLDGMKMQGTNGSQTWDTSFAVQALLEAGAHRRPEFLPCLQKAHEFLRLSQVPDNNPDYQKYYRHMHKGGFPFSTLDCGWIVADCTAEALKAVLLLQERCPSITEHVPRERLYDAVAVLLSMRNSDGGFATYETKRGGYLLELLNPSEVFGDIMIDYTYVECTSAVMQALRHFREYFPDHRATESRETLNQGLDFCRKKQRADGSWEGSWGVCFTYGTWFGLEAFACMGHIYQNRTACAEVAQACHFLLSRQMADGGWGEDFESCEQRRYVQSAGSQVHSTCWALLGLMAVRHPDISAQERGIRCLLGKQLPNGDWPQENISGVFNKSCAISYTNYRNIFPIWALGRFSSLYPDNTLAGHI
Protocol: II. Measuring the in-vivo Activity in the Rat after Oral Administration
Inhibiting the enzyme 2,3-epoxysqualene-lanosterol-cyclase causes an increase in the 2,3-epoxisqualene levels in the liver and plasma. The quantity of 2,3-epoxysqualene formed therefore serves as a direct measurement of the potency on the animal as a whole. The amounts were determined using the method described in J. Lipid. Res. 38, 564-575, [1997] at t=3 or 8 hours after administration of the substance in concentrations of c=0.01, 0.03, 0.1, 0.3 and 1.0 mg/kg. Table 3 which follows gives the results obtained for the abovementioned substances A, B, C, E, G, H, O and R by way of example.
In the control animals there were no measurable 2,3-epoxisqualene levels under these conditions.

[9] = tested on: 14C-acetate incorporation into the steroids which can be precipitated with digitonin (cholesterol biosynthesis); experiment: Inhibition of 14C-acetate incorporation into the steroids which can be precipitated with digitonin; format: cell-based; conditions: for IC50: 14C-acetate incorporation
Excerpt: I. Measuring the Inhibition of ^14C-acetate incorporation into the steroids which can be precipitated with digitonin: The inhibitory effect was investigated using the method described in J. Lipid. Res. 37, 148-157 [1996] at test concentrations of 10^−8 and 10^−9 mol/l.

[10] = Lipid reduction in the normolipaemic golden hamster; format: in vivo; conditions: compared with control group
Protocol: III. Lipid Reduction in the Normolipaemic Golden Hamster This was determined using the method described in J. Lipid. Res. 38, 564-575, (1997). At the end of the experiment the total cholesterol, β-lipoprotein-cholesterol and HDL-cholesterol were determined and compared with the values of a control group which were fed without any test substance. The lipid-lowering activity of the abovementioned compounds E, G and I was tested.

[11] = 0.01 mg/kg oral, 3 h after administration
[12] = 0.01 mg/kg oral, 8 h after administration
[13] = 0.03 mg/kg oral, 3 h after administration
[14] = 0.03 mg/kg oral, 8 h after administration
[15] = 0.1 mg/kg oral, 3 h after administration
[16] = 0.1 mg/kg oral, 8 h after administration
[17] = 0.3 mg/kg oral, 3 h after administration
[18] = 0.3 mg/kg oral, 8 h after administration

Compound	MIC Sacc. [1] [µg/mL]	MIC Rhod. [2] [µg/mL]	MIC Trich. [3] [µg/mL]	MIC Asp. [4] [µg/mL]	MIC Pen. [5] [µg/mL]	MIC Cand. [6] [µg/mL]	2,3-epoxysqualene concentration in the liver (rat) [8, 11] [µg/g]	2,3-epoxysqualene concentration in the liver (rat) [8, 12] [µg/g]	2,3-epoxysqualene concentration in the liver (rat) [8, 13] [µg/g]	2,3-epoxysqualene concentration in the liver (rat) [8, 14] [µg/g]	2,3-epoxysqualene concentration in the liver (rat) [8, 15] [µg/g]	2,3-epoxysqualene concentration in the liver (rat) [8, 16] [µg/g]	2,3-epoxysqualene concentration in the liver (rat) [8, 17] [µg/g]	2,3-epoxysqualene concentration in the liver (rat) [8, 18] [µg/g]	IC50 [9] [nM]	percentage inhibition of 14C-acetate incorporation ([9]; test concentration 10^−8 mol/l) [%]	percentage inhibition of 14C-acetate incorporation ([9]; test concentration 10^−9 mol/l) [%]	HDL-cholesterol ([10]; dose 0.5 mg/kg/day) [%]	Total cholesterol ([10]; dose 0.5 mg/kg/day) [%]	β-Lipoprotein-cholesterol ([10]; dose 0.5 mg/kg/day) [%]	further results
CN(C)Cc1ccc([C@H]2CC[C@H](N(C)C(=O)Oc3ccc(Cl)cc3)CC2)cc1.Cl [E, trans-O-(4-chlorophenyl)-N-4-[4-(dimethylaminomethyl)-phenyl]cyclohexyl-N-methylcarbamate-hydrochloride]	128	16	2	4	2	16	20.3	32.7	39.0	44.6	92.5	191.5	63.4	180.0	0.3	−85	−57	−18.2	−22.5	−27.5	Cell proliferation (% of control) [7]: 19.6%; HDL-cholesterol ([10]; dose 1.5 mg/kg/day): −24.0%; Total cholesterol ([10]; dose 1.5 mg/kg/day): −34.1%; β-Lipoprotein-cholesterol ([10]; dose 1.5 mg/kg/day): −48.4%; HDL-cholesterol ([10]; dose 4.9 mg/kg/day): −25.1%; Total cholesterol ([10]; dose 4.9 mg/kg/day): −34.3%; β-Lipoprotein-cholesterol ([10]; dose 4.9 mg/kg/day): −45.1%
CN(C)Cc1ccc([C@H]2CC[C@H](N(C)C(=S)Oc3ccc(Cl)cc3)CC2)cc1.Cl [G, trans-O-(4-chlorophenyl)-N-4-[4-(dimethylaminomethyl)-phenyl]cyclohexyl-N-methylthiocarbamate-hydrochloride]	32	8	1	4	1	4	5.2	30.1	12.8	42.3	66.2	115.3	57.5	225.5	0.4	−85	−43	−21.1	−27.7	−40.2	HDL-cholesterol ([10]; dose 1.5 mg/kg/day): −26.5%; Total cholesterol ([10]; dose 1.5 mg/kg/day): −31.1%; β-Lipoprotein-cholesterol ([10]; dose 1.5 mg/kg/day): −42.2%; HDL-cholesterol ([10]; dose 4.9 mg/kg/day): −24.3%; Total cholesterol ([10]; dose 4.9 mg/kg/day): −26.5%; β-Lipoprotein-cholesterol ([10]; dose 4.9 mg/kg/day): −33.2%
CN(C)Cc1ccc([C@H]2CC[C@H](N(C)C(=O)Oc3ccc(F)cc3)CC2)cc1.Cl [R, trans-N-4-[4-(dimethylaminomethyl)phenyl]cyclohexyl-O-(4-fluorophenyl)-N-methylcarbamate-hydrochloride]	512	16	2	16	16	64	5.1	25.6	38.2	67.2	53.8	152.9	79.7	191.0	0.5	−86	−63	–	–	–	2,3-epoxysqualene concentration in the liver (rat) ([8]; 1.0 mg/kg oral, 3 h after administration): 106.2 µg/g; 2,3-epoxysqualene concentration in the liver (rat) ([8]; 1.0 mg/kg oral, 8 h after administration): 340.0 µg/g; HDL-cholesterol ([10]; dose 1.73 mg/kg/day): −19.7%; Total cholesterol ([10]; dose 1.73 mg/kg/day): −16.5%; β-Lipoprotein-cholesterol ([10]; dose 1.73 mg/kg/day): −14.3%; HDL-cholesterol ([10]; dose 6.37 mg/kg/day): −20.0%; Total cholesterol ([10]; dose 6.37 mg/kg/day): −27.8%; β-Lipoprotein-cholesterol ([10]; dose 6.37 mg/kg/day): −34.3%
